{"source": "patent US20120309798A1", "about": "“Tumour Treatment Agents and Method” (Vivolux AB, priority 2009, published 2012)", "key": {"[1]": {"test_system": "MCF-7 cell cultures", "assay": "Effect of extracellular Fe on VLX50 induced cell death", "type": "cell-based", "settings": "MCF-7, extracellular iron added"}, "[2]": {"test_system": "Ovarian carcinoma patient tumor cells (PHTC)", "assay": "FMCA, patient tumor samples, ovarian carcinoma", "type": "cell-based, human", "source_text": "(§1) Cell culture. Patient tumor samples (98) and preparations (4) of normal peripheral blood mononuclear cells (PBMC), detailed in Table 1, were used to determine the activity of VLX50 and, for comparison, six other cytotoxic drugs chosen to represent different mechanistic classes.\n(§2) The tumor samples were obtained by bone marrow/peripheral blood sampling, routine surgery or diagnostic biopsy. Leukemic cells and PBMCs were isolated by 1.077 g ml-1 Ficoll-Paque centrifugation (Larsson et al., 1992). Tumor tissue from solid tumor samples was minced into small pieces and tumor cells were isolated by collagenase dispersion followed by Percoll density gradient centrifugation (Csoka et al., 1994). The sampling of primary tumor cells was approved by the local ethics committee at Uppsala University Hospital. Cell viability was determined by trypan blue exclusion test and the proportion of tumor cells in the preparation was judged by inspection of May-Grunvald-Giemsa stained cytospin slides (FIG. 1a). All samples used in this study contained more than 70% tumor cells.\nFluorometric Microculture Cytotoxicity Assay. The Fluorometric Microculture Cytotoxicity Assay, FMCA, described in detail previously (Lindhagen et al., 2008), is based on measurement of fluorescence generated from hydrolysis of fluorescein diacetate (FDA) to fluorescein by cells with intact plasma membranes. […] The plates were incubated for 72 h and then transferred to an integrated HTS SAIGAN Core System consisting of an ORCA robot (Beckman Coulter) with CO2 incubator (Cytomat 2C, Kendro, Sollentuna, Sweden), dispensor module (Multidrop 384, Titertek, Huntsville, Ala.), washer module (ELx 405, Bio-Tek Instruments Inc), delidding station, plate hotels, barcode reader (Beckman Coulter), liquid handler (Biomek 2000, Beckman Coulter) and a multipurpose reader (FLUOstar Optima, BMG Labtech GmbH, Offenburg, Germany) for automated FMCA. Quality criteria for a successful assay included a mean coefficient of variation of less than 30% in the control and a fluorescence signal in control wells of more than 5 times the blank. […]"}, "[3]": {"test_system": "cells from CLL and normal PBMC", "assay": "Tumor cell specificity: drug effect in CLL cells versus normal PBMC, FMCA", "type": "cell-based, human", "settings": "PBMC n=4, CLL n=9; FIG. 2c", "source_text": "as §1, §2\nFluorometric Microculture Cytotoxicity Assay. The Fluorometric Microculture Cytotoxicity Assay, FMCA, described in detail previously (Lindhagen et al., 2008), is based on measurement of fluorescence generated from hydrolysis of fluorescein diacetate (FDA) to fluorescein by cells with intact plasma membranes. Cells were seeded in the drug-prepared 384-well plates using the pipetting robot Precision 2000 (Bio-Tek Instruments Inc., Winooski, Vt.). The number of cells per well were 2500-5000. Two columns without drugs served as controls and one column with medium only served as blank. The plates were incubated for 72 h and then transferred to an integrated HTS SAIGAN Core System consisting of an ORCA robot (Beckman Coulter) with CO2 incubator (Cytomat 2C, Kendro, Sollentuna, Sweden), dispensor module (Multidrop 384, Titertek, Huntsville, Ala.), washer module (ELx 405, Bio-Tek Instruments Inc), delidding station, plate hotels, barcode reader (Beckman Coulter), liquid handler (Biomek 2000, Beckman Coulter) and a multipurpose reader (FLUOstar Optima, BMG Labtech GmbH, Offenburg, Germany) for automated FMCA. Quality criteria for a successful assay included a mean coefficient of variation of less than 30% in the control and a fluorescence signal in control wells of more than 5 times the blank.\nDose-response data were analyzed using calculated survival index values and the software program GraphPadPrism4 (GraphPad Software Inc., San Diego, Calif., USA). Data was processed using non-linear regression to a standard sigmoidal dose-response model to obtain IC50-values (inhibitory concentration 50%).\nIn FIG. 2a the response rates for VLX50 at 4 μM for the patient samples are listed according to diagnoses. […] Lung cancer, AML and CML had intermediate response rates. The relative effect of VLX50 and six standard cytotoxic drugs, in solid and hematological tumor samples, expressed as the S/H ratio, is shown in FIG. 2b. […] The results for the standard drugs are consistent with their main clinical use."}, "[4]": {"test_system": "intracellular free iron in MCF-7 cells", "assay": "Measurement of intracellular iron (Phen Green)", "type": "cell-based", "settings": "MCF-7, Phen Green fluorescent probe, 100 μM or 500 μM", "source_text": "Measurement of intracellular iron. The fluorescent membrane permeable Fe sensor, Phen Green (Invitrogen AB, Göteborg, Sweden) was used to measure changes in intracellular free iron concentration. Fluorescence of the PhenGreen indicators is quenched upon binding Fe^2+ and Fe^3+. The emission intensity of the PhenGreen FL indicator depends on both the metal ion's concentration and the indicator's concentration. MCF-7 cells were harvested and diluted to 500,000 per mL in complete medium, loaded with 10 μM PhenGreen diacetate for 45 minutes and plated to flat-bottomed 96W microtiter plates. The plates were washed ×2 with PBS, resuspended in 180 μl PBS per well and subsequently analyzed by a plate reading fluorometer Fluostar Optima which is programmed to scan fluorescence once a minute for 20 minutes with a break after 5 minutes, during which 20 μl PBS, or VLX50 (100 μM or 500 μM) was added.\nMechanism of action. Mechanistic exploration was performed using gene expression analysis of drug treated tumor cell cultures to generate a drug specific signature. The breast cancer cell line MCF-7 was treated with VLX50 or vehicle (DMSO) and analyzed for gene expression using the Affymetrix U1300plus chip. […] This query signature was subsequently submitted to the GSEA and the Connectivity map databases and strong connections to hypoxia inducible factor (HIF1 alfa) and iron chelators were retrieved. […]"}, "[5]": {"test_system": "hollow fiber cultures of PHTC from ovarian carcinoma patients", "assay": "In vivo hollow fiber assay, PHTC ovarian carcinoma", "parameters": "species or system human", "settings": "two PHTC cultures in fibers s.c. in NMRI male mice, single dose 760 μg/mouse s.c., 6 days; P<0.05 and P<0.01", "procedure": "In vivo studies. Cells from two ovarian carcinoma patients and the cell line CEM were cultured inside semi-permeable polyvinylidene fluoride fibers and assessed by the hollow fiber assay (Friberg et al., 2005; Jonsson et al., 2000). The fibers were implanted subcutaneously into NMRI male mice (Scanbur, Sollentuna Sweden), which were treated with a single dose (0.76 mg/mouse) of VLX50 subcutaneously, or vehicle only (n=animals/group). Fibers were retrieved after 6 days and cell density evaluated (FIG. 3a) using the MTT (3-[4,5-dimethylthiazol-2-yl]-2,5-diphenyltetrazolium bromide)-assay (Alley et al. 1988). The method is based on the conversion of MTT to blue formazan crystals by living cells. The formazan was extracted by DMSO as previously described (Jonsson et al. 2000), and optical density (OD) read at 570 nm. Cell density for each fiber on retrieval day was expressed as net growth, defined as (OD retrieval day—OD implantation day)/OD implantation day, i.e. the percent change in cell density in the fibers during the 6 days of in vivo experiment. The animals were observed regarding behavior and weight gain throughout the experiment. Blood samples (200 μl) were obtained through the orbital plexus after anesthetization with isofluran just before euthanasia, and analyzed for hematological parameters. […]"}}, "note": "Where two headings read alike, the source gives them in different places.", "data": [{"compound": "COCCCNC(=S)N/N=C\\c1ccccn1", "note": "[VLX50, N1-(3-methoxypropyl)-2-(pyridylmethylidene)-hydrazine-1-carbothioamide]", "values": [{"measurement": "VLX50 activity on adding extracellular iron", "setting": "[1]", "result": "dose-dependent decrease"}, {"measurement": "IC50", "setting": "[2]; Homo sapiens, 72 h, n=14, 72 h FMCA, read-out: Median IC50", "result": "< 5", "unit": "µM"}, {"measurement": "IC50", "setting": "[2]; Homo sapiens, range over n=14 samples, read-out: IC50 Range", "result": "0.26 to 40", "unit": "µM"}, {"measurement": "IC50", "setting": "[2]; n=14, 72 h FMCA, read-out: Median IC50", "result": 3.46, "unit": "µM"}, {"measurement": "PBMC/CLL median IC50 ratio", "setting": "[3]", "result": 7.6}, {"measurement": "Intracellular iron concentration", "setting": "[4]", "result": "decrease"}, {"measurement": "Growth inhibition (net growth) compared to vehicle", "setting": "[5]", "result": "significant growth inhibition"}]}]}
